Holding throughout (experiment): Antibacterial MIC, standard microtitration
Holding throughout (type): cell-based

One experiment relates to S. aureus 29213. To be noted: Staphylococcus aureus, Gram positive, read-out: Minimum Inhibitory Concentrations. The method, then:
(§1) The compounds of the present invention were tested against an assortment of gram positive and gram negative organisms using standard microtitration techniques (Cohen, et. al. Antimicrobial Agents Chemother. 1985, 28, 766; Heifetz, et. al. Antimicrobial Agents Chemother. 1974, 6, 124) and the results are given in Table 1.

Another experiment has as its system B. subtilis RB1. To be noted: Bacillus subtilis, Gram positive, read-out: Minimum Inhibitory Concentrations. The protocol:
as §1

The test system of the next experiment is E. coli Tol C. To be noted: Escherichia coli, read-out: Minimum Inhibitory Concentrations. The protocol:
as §1

In the next experiment the test system is E. Coli MC4100. To be noted: Escherichia coli, Gram negative, read-out: Minimum Inhibitory Concentrations. The protocol: as §1
A further experiment concerns S. pyogenes C203. To be noted: Streptococcus pyogenes, Gram positive, read-out: Minimum Inhibitory Concentrations. The method, then: as §1
The test system of a further experiment is E. coli B90. To be noted: Escherichia coli, Gram negative, read-out: Minimum Inhibitory Concentrations. The method, then: as §1

For four molecules, MIC results are on record in patent publication US6057315A, “Antibacterial agents” (Warner-Lambertt Company, priority 1999, dated 2000).

Values after ≈ are worked out from the molar mass of the structure shown.

In the case of `CCCc1c(O)cc2oc3cc(Cl)c(C=NO)n3c(=O)c2c1O` [Example 10, 2-Chloro-6,8-dihydroxy-9-oxo-7-propyl-9H-pyrrolo[2,1-b][1,3]benzoxazine-1-carboxaldehyde, oxime], the MIC is 32 µg/mL (≈ 95 µM) in the experiment on S. aureus 29213; 32 µg/mL (≈ 95 µM) in the experiment with B. subtilis RB1; 8 µg/mL (≈ 23.8 µM) in the experiment on E. coli Tol C; more than 64 µg/mL in the experiment with E. Coli MC4100; 16 µg/mL (≈ 47.5 µM) in the experiment on S. pyogenes C203; more than 64 µg/mL in the experiment on E. coli B90.
Turning to `CCCc1c(OC(C)=O)cc2oc3cc(Cl)cn3c(=O)c2c1OC(C)=O` [Example 13, 6,8-Bis(acetyloxy)-2-chloro-7-propyl-9H-pyrrolo [2,1-b][1,3]benzoxazin-9-one], the MIC in the experiment on S. aureus 29213 is 4 µg/mL (≈ 10.6 µM); with B. subtilis RB1, 8 µg/mL (≈ 21.2 µM); in the experiment with E. coli Tol C, 8 µg/mL (≈ 21.2 µM); in the experiment with E. Coli MC4100, more than 64 µg/mL; in the experiment with S. pyogenes C203 it was 4 µg/mL (≈ 10.6 µM); in the experiment on E. coli B90, 64 µg/mL (≈ 169 µM).
On to `CCCc1c(O)cc2oc3cccn3c(=O)c2c1O` [Example 6, 6,8-Dihydroxy-7-propyl-9H-pyrrolo[2,1-b][1,3]benzoxazin-9-one], for which the MIC with S. aureus 29213 was 2 µg/mL (≈ 7.71 µM); in the experiment with B. subtilis RB1, 4 µg/mL (≈ 15.4 µM); in the experiment with E. coli Tol C, 2 µg/mL (≈ 7.71 µM); in the experiment on E. Coli MC4100 it was more than 64 µg/mL; in the experiment with S. pyogenes C203, 4 µg/mL (≈ 15.4 µM); with E. coli B90, 4 µg/mL (≈ 15.4 µM).
Consider `CCCc1c(O)cc2oc3cc(Cl)c(C=O)n3c(=O)c2c1O` [Example 9, 2-Chloro-6,8-dihydroxy-9-oxo-7-propyl-9H-pyrrolo[2,1-b][1,3]benzoxazine-1-carboxaldehyde], for which the MIC with S. aureus 29213 was 4 µg/mL (≈ 12.4 µM); in the experiment on B. subtilis RB1, 1 µg/mL (≈ 3.11 µM); in the experiment on E. coli Tol C it was 2 µg/mL (≈ 6.22 µM); in the experiment with E. Coli MC4100 it was more than 64 µg/mL; in the experiment with S. pyogenes C203, 4 µg/mL (≈ 12.4 µM); with E. coli B90, 4 µg/mL (≈ 12.4 µM).
